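Test compounds were applied to cells in 96-well plates for 48 hours at 5 doses. Abbreviation: GI50, concentration required for 50% inhibition of growth.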 The source made the active and inactive calls. Rule as the data show it: active = GI50 up to about 1.1 µM and inactive = higher.
How the values were obtained:
Assay in all cases: NCI anticancer screen, dose series, 48 h
EKVX = system: EKVX
HCT-15 = system: HCT-15
HT-29 = system: HT-29
Hs-578T = system: Hs-578T
K562 = system: K562
LOX IMVI = system: LOX IMVI
MCF7 = system: MCF7
MDA-MB-435 = system: MDA-MB-435
NCI-H226 = system: NCI-H226
OVCAR-5 = system: OVCAR-5
OVCAR-8 = system: OVCAR-8
PC-3 = system: PC-3
SK-MEL-2 = system: SK-MEL-2
SK-OV-3 = system: SK-OV-3
SNB-75 = system: SNB-75
SW-620 = system: SW-620
T47D = system: T47D
SN12C = system: SN12C

SMILES	GI50 (EKVX)	GI50 (HCT-15)	GI50 (HT-29)	GI50 (Hs-578T)	GI50 (K562)	GI50 (LOX IMVI)	GI50 (MCF7)	GI50 (MDA-MB-435)	GI50 (NCI-H226)	GI50 (OVCAR-5)	GI50 (OVCAR-8)	GI50 (PC-3)	GI50 (SK-MEL-2)	GI50 (SK-OV-3)	GI50 (SNB-75)	GI50 (SW-620)	GI50 (T47D)	GI50 (SN12C)
CN(C)C(=O)OC(Cn1cncn1)(Cn1cncn1)c1ccc(Cl)cc1Cl	> 100 µM (inactive)	> 100 µM	> 100 µM (inactive)	> 100 µM (inactive)	> 100 µM (inactive)	> 100 µM (inactive)	> 100 µM (inactive)	> 100 µM (inactive)	> 100 µM (inactive)	> 100 µM (inactive)	> 100 µM (inactive)	> 100 µM (inactive)	71.8 µM (inactive)	> 100 µM (inactive)	> 100 µM (inactive)	> 100 µM (inactive)	> 100 µM (inactive)	–
COc1ccc2ccccc2c1C1NC(=O)c2ccccc2N1 (stereo unspecified)	2.51 µM (inactive)	0.436 µM	0.873 µM (active)	1.7 µM (inactive)	0.279 µM (active)	0.995 µM (active)	0.78 µM (active)	0.234 µM (active)	1.57 µM (inactive)	3.39 µM (inactive)	3.03 µM (inactive)	0.519 µM (active)	2.08 µM (inactive)	2.82 µM (inactive)	1.32 µM (inactive)	0.536 µM (active)	12.1 µM (inactive)	2.67 µM (inactive)
CC(N)(Cc1c[nH]c2ccccc12)C(=O)O (stereo unspecified)	> 100 µM (inactive)	> 100 µM	> 100 µM (inactive)	> 100 µM (inactive)	> 100 µM (inactive)	> 100 µM (inactive)	> 100 µM (inactive)	> 100 µM (inactive)	> 100 µM (inactive)	> 100 µM (inactive)	> 100 µM (inactive)	> 100 µM (inactive)	> 100 µM (inactive)	> 100 µM (inactive)	> 100 µM (inactive)	> 100 µM (inactive)	> 100 µM (inactive)	> 100 µM (inactive)
CCOC(=O)/C(C(N)=O)=C(O)/C(O)=C(\Br)C(=O)c1ccccc1	23.9 µM (inactive)	18.2 µM	25.9 µM (inactive)	20.4 µM (inactive)	11.8 µM (inactive)	15.6 µM (inactive)	17.7 µM (inactive)	16.9 µM (inactive)	19.5 µM (inactive)	19.4 µM (inactive)	19.6 µM (inactive)	17.4 µM (inactive)	18.9 µM (inactive)	26.2 µM (inactive)	17.3 µM (inactive)	9.66 µM (inactive)	23.1 µM (inactive)	18.5 µM (inactive)
O=C(Cn1c(=O)oc2ccc(C(=O)c3ccc(F)cc3)cc21)c1ccc([N+](=O)[O-])cc1	–	20.9 µM	39 µM (inactive)	20.4 µM (inactive)	28.3 µM (inactive)	34.8 µM (inactive)	31.7 µM (inactive)	19.3 µM (inactive)	27.3 µM (inactive)	> 100 µM (inactive)	25.8 µM (inactive)	22.5 µM (inactive)	20.2 µM (inactive)	69.8 µM (inactive)	36.9 µM (inactive)	36.7 µM (inactive)	24.7 µM (inactive)	60.3 µM (inactive)
CC1(CCC2C=CCC2)CCCNC1=S (stereo unspecified)	> 10 µM (inactive)	> 10 µM	> 10 µM (inactive)	> 10 µM (inactive)	> 10 µM (inactive)	> 10 µM (inactive)	> 10 µM (inactive)	> 10 µM (inactive)	> 10 µM (inactive)	> 10 µM (inactive)	> 10 µM (inactive)	> 10 µM (inactive)	> 10 µM (inactive)	> 10 µM (inactive)	> 10 µM (inactive)	> 10 µM (inactive)	> 10 µM (inactive)	> 10 µM (inactive)
O=C(NCCN(CCNC(=O)c1cccc(O)c1O)CCNC(=O)c1cccc(O)c1O)c1cccc(O)c1O [TRENCAM]	41.4 µM (inactive)	10.4 µM	5.31 µM (inactive)	29.7 µM (inactive)	5.28 µM (inactive)	1.22 µM (inactive)	9.55 µM (inactive)	21.7 µM (inactive)	14.8 µM (inactive)	66.2 µM (inactive)	3.15 µM (inactive)	11.4 µM (inactive)	33.2 µM (inactive)	16.7 µM (inactive)	22.2 µM (inactive)	2.4 µM (inactive)	9.73 µM (inactive)	8.55 µM (inactive)
NC(CCC(=O)O)C(=O)NC(Cc1ccc(N(CCCl)CCCl)cc1)C(=O)O (stereo unspecified)	> 100 µM (inactive)	> 100 µM	> 100 µM (inactive)	> 100 µM (inactive)	> 100 µM (inactive)	> 100 µM (inactive)	> 100 µM (inactive)	> 100 µM (inactive)	> 100 µM (inactive)	> 100 µM (inactive)	> 100 µM (inactive)	> 100 µM (inactive)	> 100 µM (inactive)	> 100 µM (inactive)	> 100 µM (inactive)	> 100 µM (inactive)	> 100 µM (inactive)	> 100 µM (inactive)
Oc1nc2nnc(COc3ccc(Cl)cc3Cl)n2nc1Cc1ccccc1	> 100 µM (inactive)	> 100 µM	> 100 µM (inactive)	51.6 µM (inactive)	> 100 µM (inactive)	> 100 µM (inactive)	> 100 µM (inactive)	> 100 µM (inactive)	25.1 µM (inactive)	> 100 µM (inactive)	26.1 µM (inactive)	> 100 µM (inactive)	> 100 µM (inactive)	27.4 µM (inactive)	16 µM (inactive)	> 100 µM (inactive)	37.8 µM (inactive)	57.1 µM (inactive)
CC(C)(C)COC1C2(OCCO2)C2CCC1(C)C2(C)C (stereo unspecified)	33.7 µM (inactive)	22.4 µM	32.7 µM (inactive)	18.8 µM (inactive)	18.5 µM (inactive)	19.2 µM (inactive)	19.1 µM (inactive)	36 µM (inactive)	27.4 µM (inactive)	28.9 µM (inactive)	23.1 µM (inactive)	23.1 µM (inactive)	23.4 µM (inactive)	66.2 µM (inactive)	24.1 µM (inactive)	19.7 µM (inactive)	23.8 µM (inactive)	–
O=C1Oc2cc(O)cc(/C=C/c3ccc(O)cc3)c2[C@@]12c1c(O)cc(O)cc1OC2c1cccc(O)c1 (stereo partly specified)	49.3 µM (inactive)	83.4 µM	29.2 µM (inactive)	20.5 µM (inactive)	39.8 µM (inactive)	23.3 µM (inactive)	39.1 µM (inactive)	21.4 µM (inactive)	11.1 µM (inactive)	29.2 µM (inactive)	41.2 µM (inactive)	30.9 µM (inactive)	24.2 µM (inactive)	30.8 µM (inactive)	52.2 µM (inactive)	–	44.8 µM (inactive)	25.9 µM (inactive)
CC(C)=CCc1cc2c(cc1O)OC[C@H]1c3cc4c(cc3O[C@@H]21)OCO4	22.2 µM (inactive)	35.8 µM	> 100 µM (inactive)	18.2 µM (inactive)	36.7 µM (inactive)	17.3 µM (inactive)	25.3 µM (inactive)	32.6 µM (inactive)	23.8 µM (inactive)	61.7 µM (inactive)	> 100 µM (inactive)	23.3 µM (inactive)	–	> 100 µM (inactive)	78.7 µM (inactive)	36.5 µM (inactive)	34.4 µM (inactive)	> 10 µM (inactive)

Reference: ChEMBL document CHEMBL1201862, “PubChem BioAssay data set” (2004)
